Series [1] in a line: Human plasma stability. Type of series: in vitro ADME. The settings on record: plasma. As for the experimental part: Protocol 1: Studies were carried out in human plasma. All plasma was obtained from Bioreclamation and collected on sodium heparin. Plasma was adjusted to pH 7.4. A DMSO stock was first prepared for the test compound. An aliquot of the DMSO solution was dosed into 1 mL of plasma, which had been pre-warmed to 37° C., at a final test compound concentration of 1 μM. The vials were kept in a benchtop Thermomixer® for the duration of the experiment. Aliquots (100 μL) were taken at each time point (0, 15, 30, 60, and 120 minutes) and added to 96-well plates which had been pre-filled with 300 μL of acetonitrile. Samples were stored at 4° C. until the end of the experiment. After the final time point was sampled, the plate was mixed and then centrifuged at 3,000 rpm for 10 minutes. Aliquots of the supernatant were removed, diluted 1:1 into distilled water, and analyzed by LC-MS/MS. The peak area response ratio to internal standard (PARR) of the compound at 15, 30, 60 and 120 minutes was compared to the PARR at time 0 to determine the percent of test compound remaining at each time point. Half-lives were calculated using GraphPad software, fitting to a single-phase exponential decay equation.
Protocol 2: Studies were carried out in plasma. Plasma was prepared under approval of IRB and IACUC on sodium heparin. The pH of plasma was monitored and used within the range of pH 7.4 to pH 8.0. DMSO stocks were prepared for the test compounds. Aliquots of the DMSO solutions were diluted to 0.05 mM by 0.05 mM Sodium phosphate buffer with 0.5% BSA. Then 10 μL of 0.05 mM solutions were dosed into 90 μL of plasma in duplicates (n=2), which had been pre-warmed to 37° C., at a final test compound concentration of 5 μM. The plates were kept in a 37° C. water bath for the duration of the experiment. At each time point (0, 5, 15, 30, 45, 60, and 120 minutes), 400 μL of acetonitrile was added into corresponding wells. After the final time point was sampled, the plates were shaken at the vibrator (IKA, MTS 2/4) for 10 min (600 rpm/min) and then centrifuged at 5594 g for 15 min (Thermo Multifuge×3R). Aliquots of the supernatant were removed, diluted 1:1 into distilled water, and analyzed by LC-MS/MS. The peak area response ratio to internal standard (PARR) of the compounds at 5, 15, 30, 45, 60, and 120 minutes was compared to the PARR at time 0 to determine the percent of test compound remaining at each time point. Half-lives were calculated using Excel software, fitting to a single-phase exponential decay equation.

Series [2] can be described thus: Metabolic stability assay in human liver microsomes (HLM). The settings on record: 1 μM. Type of series: in vitro ADME. As to the method: (§1) Protocol 1: Studies were carried out in human and rat liver microsomes (“HLM” and “RLM,” respectively). Human and rat liver microsomes were purchased from BD Gentest. DMSO stocks were prepared for the test compounds. Aliquots of the DMSO solutions were diluted to 0.5 mM by acetonitrile, then further diluted by liver microsomes/buffer to 1.5 μM. 30 μL of 1.5 μM solutions were mixed with 15 μL of 6 mM NADPH, which had been pre-warmed to 37° C., at a final test compound concentration of 1 μM. The plates were kept in a 37° C. water bath for the duration of the experiment. At each time point (0, 5, 15, 30, 45 minutes), 135 μL of acetonitrile was added into corresponding wells. After the final time point was sampled, the plates were shaken at a vibrator (IKA, MTS 2/4) for 10 min (600 rpm/min) and then centrifuged at 5594 g for 15 min (Thermo Multifuge×3R). Aliquots of the supernatant were removed, diluted 1:1 into distilled water, and analyzed by LC-MS/MS. The peak area response ratio to internal standard (PARR) of the compounds at 5, 15, 30, 45 minutes was compared to the PARR at time 0 to determine the percent of test compound remaining at each time point. Half-lives were calculated using Excel software, fitting to a single-phase exponential decay equation.
(§2) Protocol 2: Studies were carried out in human and rat liver microsomes. Buffer solutions were prepared as follows: Buffer A: 1.0 L of 0.1 M monobasic Potassium Phosphate buffer containing 1.0 mM EDTA; Buffer B: 1.0 L of 0.1 M Dibasic Potassium Phosphate buffer containing 1.0 mM EDTA; Buffer C: 0.1 M Potassium Phosphate buffer, 1.0 mM EDTA, pH 7.4 by titrating 700 mL of buffer B with buffer A while monitoring with a pH meter.
(§3) Reference compound (Ketanserin) and test compound spiking solutions were prepared as follows: 500 μM spiking solution: add 10 μL of 10 mM DMSO stock solution into 190 μL ACN; 1.5 μM spiking solution in microsomes (0.75 mg/mL): add 1.5 μL of 500 μM spiking solution and 18.75 μL of 20 mg/mL liver microsomes into 479.75 μL of Buffer C.
(§4) NADPH stock solution (6 mM) was prepared by dissolving NADPH into buffer C.
(§5) Assay procedure: 30 μL of 1.5 μM spiking solution containing 0.75 mg/mL microsomes solution was dispensed to the wells designated for […]. The plate was pre-incubated at 37° C. for 10 minutes. 15 μL of NADPH stock solution (6 mM) was added to the wells designated as Time 45, and the timer was started. At 30 mM, 15 mM, and 5 mM, 15 μL NADPH stock solution (6 mM) was added to the wells, respectively. At the end of incubation (0 mM), 135 μL of ACN containing IS was added to all the wells. Then 15 μL of NADPH stock solution (6 mM) was added to the wells designated as Time 0. After quenching, the reaction mixtures were centrifuged at 3220 g for […]. Following centrifugation, 50 μL of the supernatant was transferred from each well into a 96-well sample plate containing 50 μL of ultra-pure water (Millipore) for LC/MS analysis. The peak area response (PARR) ratio to internal standard of the compounds at 5, 15, 30, and 45 minutes was compared to the PARR at time 0 to determine the percent of test compound remaining at each time point. Half-lives were calculated using Excel software, fitting to a single-phase exponential decay equation.
Background: Microsomes from liver hold many membrane-bound enzymes, among them those of drug oxidation.

For series [3], the target named is CYP1A2 (Homo sapiens (Human), UniProt P05177). The series is described as follows: Cytochrome P450 inhibition in human liver microsomes, CYP1A2. The settings on record: read-out: 1A2 IC50, Protocol 2.
Series [4] is described as follows: Metabolic stability assay in rat liver microsomes (RLM). The class given is in vitro ADME. Conditions: 1 μM. As to the method: as §1, §2, §3, §4, §5
The target in series [5] is CYP2C19 (Homo sapiens (Human), UniProt P33261). Briefly: Cytochrome P450 inhibition in human liver microsomes, CYP2C19. Conditions: read-out: 2C19 IC50, Protocol 2.
Series [6] concerns the target CYP2C9 (Homo sapiens (Human), UniProt P11712). The series is described as follows: Cytochrome P450 inhibition in human liver microsomes, CYP2C9. The settings on record: read-out: 2C9 IC50, Protocol 2.
Series [7] concerns the target rat brain nicotinic receptor (α7 NAChR) (Rattus norvegicus (Rat), UniProt Q05941). The class given is binding.
In series [8] the target is CYP3A4 (Homo sapiens (Human), UniProt P08684). The series is described as follows: Cytochrome P450 inhibition in human liver microsomes, CYP3A4. Conditions: read-out: 3A4 IC50 (Midazolam), substrate midazolam, Protocol 2.

The record followed here is patent US9434724B2, “Quinuclidines for modulating alpha 7 activity” (priority 2014, dated 2016).

CYP1A2, sequence (P05177 whole entry): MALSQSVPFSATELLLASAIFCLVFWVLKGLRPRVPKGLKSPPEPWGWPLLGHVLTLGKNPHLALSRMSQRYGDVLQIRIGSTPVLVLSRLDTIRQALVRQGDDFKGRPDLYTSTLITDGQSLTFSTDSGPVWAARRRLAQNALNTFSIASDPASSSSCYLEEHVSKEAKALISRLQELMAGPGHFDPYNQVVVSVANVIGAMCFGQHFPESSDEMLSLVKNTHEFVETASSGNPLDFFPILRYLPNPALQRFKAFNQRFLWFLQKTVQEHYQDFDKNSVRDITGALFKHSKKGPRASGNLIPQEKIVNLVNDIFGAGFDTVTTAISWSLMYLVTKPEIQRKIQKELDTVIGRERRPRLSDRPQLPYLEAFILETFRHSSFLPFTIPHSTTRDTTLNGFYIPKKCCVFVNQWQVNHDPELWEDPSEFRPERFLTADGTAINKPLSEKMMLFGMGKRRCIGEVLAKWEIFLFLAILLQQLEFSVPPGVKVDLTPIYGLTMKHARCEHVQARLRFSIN
CYP2C9, sequence (P11712 whole entry): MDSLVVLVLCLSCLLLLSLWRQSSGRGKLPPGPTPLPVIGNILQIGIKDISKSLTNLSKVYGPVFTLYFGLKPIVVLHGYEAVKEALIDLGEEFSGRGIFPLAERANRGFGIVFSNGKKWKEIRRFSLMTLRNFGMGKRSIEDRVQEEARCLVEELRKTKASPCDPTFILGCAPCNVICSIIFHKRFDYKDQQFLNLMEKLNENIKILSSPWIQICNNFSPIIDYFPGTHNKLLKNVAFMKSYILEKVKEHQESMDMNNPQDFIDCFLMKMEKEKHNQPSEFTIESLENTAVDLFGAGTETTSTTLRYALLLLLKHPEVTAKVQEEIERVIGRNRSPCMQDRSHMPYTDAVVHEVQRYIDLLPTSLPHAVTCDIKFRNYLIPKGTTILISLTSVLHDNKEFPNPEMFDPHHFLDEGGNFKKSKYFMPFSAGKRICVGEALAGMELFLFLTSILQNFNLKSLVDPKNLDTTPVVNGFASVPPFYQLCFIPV
CYP2C19, sequence (P33261 whole entry): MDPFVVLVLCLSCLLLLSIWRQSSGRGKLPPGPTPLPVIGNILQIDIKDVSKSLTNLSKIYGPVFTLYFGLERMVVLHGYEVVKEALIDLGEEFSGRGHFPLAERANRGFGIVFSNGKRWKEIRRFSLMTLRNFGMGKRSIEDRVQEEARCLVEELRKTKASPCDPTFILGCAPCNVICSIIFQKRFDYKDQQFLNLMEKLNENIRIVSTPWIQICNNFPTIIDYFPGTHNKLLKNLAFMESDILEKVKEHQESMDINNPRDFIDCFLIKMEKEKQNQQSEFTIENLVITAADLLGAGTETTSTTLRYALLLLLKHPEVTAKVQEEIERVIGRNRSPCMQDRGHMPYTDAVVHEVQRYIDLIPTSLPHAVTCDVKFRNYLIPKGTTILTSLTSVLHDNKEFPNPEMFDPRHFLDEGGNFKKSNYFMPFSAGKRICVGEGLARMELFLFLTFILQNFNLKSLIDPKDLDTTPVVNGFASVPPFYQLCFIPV
rat brain nicotinic receptor (α7 NAChR), sequence (Q05941 23-502 limits assumed): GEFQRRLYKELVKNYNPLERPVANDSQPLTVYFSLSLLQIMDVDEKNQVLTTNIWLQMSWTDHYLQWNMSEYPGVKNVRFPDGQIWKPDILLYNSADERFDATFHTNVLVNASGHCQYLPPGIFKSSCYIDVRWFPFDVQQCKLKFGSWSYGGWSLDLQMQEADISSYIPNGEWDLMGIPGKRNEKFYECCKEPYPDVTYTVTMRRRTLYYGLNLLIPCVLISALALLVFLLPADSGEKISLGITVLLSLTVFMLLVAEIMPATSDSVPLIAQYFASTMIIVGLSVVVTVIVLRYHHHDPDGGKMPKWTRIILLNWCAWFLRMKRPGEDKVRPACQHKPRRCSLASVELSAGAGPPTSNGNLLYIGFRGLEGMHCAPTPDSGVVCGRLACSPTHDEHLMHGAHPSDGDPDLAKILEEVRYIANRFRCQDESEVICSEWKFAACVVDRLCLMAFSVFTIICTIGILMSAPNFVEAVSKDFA
CYP3A4, sequence (P08684 whole entry): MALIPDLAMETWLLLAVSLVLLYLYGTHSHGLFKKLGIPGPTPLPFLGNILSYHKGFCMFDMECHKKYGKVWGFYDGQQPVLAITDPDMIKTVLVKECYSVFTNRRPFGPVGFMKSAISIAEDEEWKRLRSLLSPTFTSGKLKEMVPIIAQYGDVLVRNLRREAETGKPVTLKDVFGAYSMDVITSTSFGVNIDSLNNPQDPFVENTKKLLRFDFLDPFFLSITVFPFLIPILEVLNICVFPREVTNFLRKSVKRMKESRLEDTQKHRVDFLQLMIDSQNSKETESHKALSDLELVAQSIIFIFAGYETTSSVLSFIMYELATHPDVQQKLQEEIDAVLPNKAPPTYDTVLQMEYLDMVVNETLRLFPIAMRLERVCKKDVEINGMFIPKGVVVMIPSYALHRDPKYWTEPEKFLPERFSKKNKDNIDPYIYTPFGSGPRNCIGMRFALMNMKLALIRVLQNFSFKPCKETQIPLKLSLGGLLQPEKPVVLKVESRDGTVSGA

`N#Cc1ccc2c(C(=O)OCC34CCN(CC3)CC4)c[nH]c2c1` [Compound 28, quinuclidin-4-ylmethyl 6-cyano-1H-indole-3-carboxylate]: in series [1] (human, 2 h, 1 μM, pH 7.4), the “% Remaining @ 2 h” value is recorded as 79%. Further, in series [1] (human, pH 7.4), the half-life (as a rule, how long it takes for the measured level to halve) at 1 μM was more than 120 min. The HLM in series [2] (human, microsomes, pH 7.4) was less than 13.608 mL/min/kg. The IC50 in series [3], in series [5] and in series [6] was more than 10 µM throughout. In series [4] (rat, microsomes, pH 7.4), this molecule had an RLM of 28.4342 mL/min/kg.
For `COc1ccc2c(C(=O)OCC34CCN(CC3)CC4)c[nH]c2c1` [Compound 17, quinuclidin-4-ylmethyl 6-methoxy-1H-indole-3-carboxylate], in series [2] (human, microsomes, pH 7.4), the HLM is reported as less than 13.608 mL/min/kg. For the same molecule, the IC50 (commonly the concentration that inhibits the measured activity by half) in series [3] was more than 10 µM. The RLM in series [4] (rat, microsomes, pH 7.4) was determined as 38.1652 mL/min/kg. In series [7], the IC50 is 376 nM and affinity was put at a Ki of 329 nM.
Take `O=C(OCC12CCN(CC1)CC2)c1c[nH]c2cc(F)ccc12` [Compound 11, quinuclidin-4-ylmethyl 6-fluoro-1H-indole-3-carboxylate]: the HLM in series [2] (human, microsomes, pH 7.4) is reported as less than 13.608 mL/min/kg. Also, the results for the IC50 in series [3], in series [7] and in series [8] were more than 10 µM, 261 nM and more than 10 µM, respectively. In series [4] (rat, microsomes, pH 7.4), this molecule displayed an RLM of 97.6892 mL/min/kg. Besides, the Ki – broadly, a measure of affinity in units of concentration, obtained from inhibition or displacement – in series [7] came to 228 nM.
For the molecule `COc1cccc2[nH]cc(C(=O)OCC34CCN(CC3)CC4)c12` [Compound 36, quinuclidin-4-ylmethyl 4-methoxy-1H-indole-3-carboxylate], the “% Remaining @ 2 h” value in series [1] (human, 2 h, 1 μM, pH 7.4) stood at 2.5%. Besides, the half-life at 1 μM in series [1] (human, pH 7.4) amounted to 28 min. For the same molecule, the HLM in series [2] (human, microsomes, pH 7.4) is on record as less than 13.608 mL/min/kg. Also, the IC50 in series [3] is more than 10 µM. The molecule further registered an RLM in series [4] (rat, microsomes, pH 7.4) of 52.02 mL/min/kg. In series [7], this molecule showed an IC50 of 48.9 nM and a Ki of 42.3 nM.
As to `Cc1ccc2[nH]cc(C(=O)OCC34CCN(CC3)CC4)c2c1` [Compound 20, quinuclidin-4-ylmethyl 5-methyl-1H-indole-3-carboxylate], in series [1] (human, 2 h, 1 μM, pH 7.4), the “% Remaining @ 2 h” value is given as 14%. In series [1] (human, pH 7.4), this molecule came in with a half-life at 1 μM of 41.2 min. In series [2] (human, microsomes, pH 7.4), this molecule showed an HLM of less than 13.608 mL/min/kg. The IC50 in series [3] was more than 10 µM. The RLM in series [4] (rat, microsomes, pH 7.4) turned out to be 276.124 mL/min/kg. In series [7], this molecule returned an IC50 of 68.1 nM and a Ki of 60.1 nM.
Molecule `COc1ccc2c(C(=O)OCC34CCN(CC3)CC4)c[nH]c2c1` [Compound 10, quinuclidin-4-ylmethyl 6-methoxy-1H-indole-3-carboxylate] returned a half-life at 1 μM in series [1] (human, pH 7.4) of more than 120 min. The same molecule registered an HLM in series [2] (human, microsomes, pH 7.4) of less than 13.608 mL/min/kg. Further, the IC50 in series [3] is more than 10 µM. The molecule further gave an RLM in series [4] (rat, microsomes, pH 7.4) of 36.72 mL/min/kg.
`COc1cccc2c(C(=O)OCC34CCN(CC3)CC4)c[nH]c12` [Compound 16, quinuclidin-4-ylmethyl 7-methoxy-1H-indole-3-carboxylate] displayed an HLM in series [2] (human, microsomes, pH 7.4) of less than 13.608 mL/min/kg. For the same molecule, the IC50 in series [3] was more than 10 µM; in series [7] it was 1400 nM; in series [5], more than 10 µM; in series [6], more than 10 µM. The molecule also displayed an RLM in series [4] (rat, microsomes, pH 7.4) of 82.6672 mL/min/kg. Moreover, the affinity in series [7] corresponds to a Ki of 1210 nM.
For the molecule `Cc1ccc2[nH]cc(C(=O)OCC34CCN(CC3)CC4)c2c1C` [Compound 70, quinuclidin-4-ylmethyl 4,5-dimethyl-1H-indole-3-carboxylate], the “% Remaining @ 2 h” value in series [1] (human, 2 h, 5 μM) is on record as 71.56%. Besides, the HLM in series [2] (human, microsomes) is recorded as 0 mL/min/kg. In series [4] (rat, microsomes), this molecule registered an RLM of 1349.06 mL/min/kg. In series [7], this molecule had an IC50 of 315 nM and a Ki of 272 nM.
With “quinuclidin-4-ylmethyl 6-fluoro-4-methoxy-1H-indole-3-carboxylate [Compound 82]”, in series [1] (Protocol No. 2, 5 μM, 37° C.), the “% Remaining @ 2 h” value came out at 48.22% and the T1/2 was 124.43 min. Also, the HLM in series [2] (Protocol No. 1, human liver microsomes) stood at 8 mL/min/kg. The same molecule had an RLM in series [4] (Protocol No. 1, rat liver microsomes) of 433.66 mL/min/kg. In addition, in series [7], the midpoint of inhibition, the IC50, lay at 412 nM and the affinity, expressed as Ki, was 357 nM.
In series [2] (human, microsomes, pH 7.4), `O=C(OCC12CCN(CC1)CC2)c1c[nH]c2ccc(O)cc12` [Compound 15, quinuclidin-4-ylmethyl 5-hydroxy-1H-indole-3-carboxylate] showed an HLM of less than 13.608 mL/min/kg. Moreover, the IC50 in series [3] was more than 10 µM; in series [7] it was 153 nM; in series [5], more than 10 µM; in series [6], more than 10 µM. Moreover, the RLM in series [4] (rat, microsomes, pH 7.4) is reported as 25.92 mL/min/kg. Besides, the Ki in series [7] was found to be 132 nM.
As to `Cc1cc2c(C(=O)OCC34CCN(CC3)CC4)c[nH]c2cc1Cl` [Compound 78, quinuclidin-4-ylmethyl 6-chloro-5-methyl-1H-indole-3-carboxylate], the “% Remaining @ 2 h” value in series [1] (human, 2 h, 5 μM) was determined as 77.57%. This molecule displayed an HLM in series [2] (human, microsomes) of 0 mL/min/kg. In series [4] (rat, microsomes), the RLM worked out at 679.777 mL/min/kg. In series [7], this molecule registered a half-maximal inhibitory concentration (IC50) of 1130 nM and a Ki of 970 nM.
